± gives the expanded uncertainty stated by the source.
CCCCn1cc[n+](C)c1.CCOS(=O)(=O)[O-] [1-butyl-3-methyl-1H-imidazolium ethyl sulfate]
101.33 kPa, Liquid
Conditions	mass density, Vibrating tube method [kg/m3]	viscosity, Falling or rolling sphere viscometry [mPa·s]
283.15 K	1193 ± 10	672.1 ± 60
293.15 K	1186 ± 10	334 ± 24
303.15 K	1180 ± 10	181 ± 10
313.15 K	1173 ± 10	110.3 ± 5.2
323.15 K	1166 ± 10	70.37 ± 2.9
333.15 K	1160 ± 10	47.41 ± 1.9
343.15 K	1153 ± 10	33.67 ± 1.4
353.15 K	1146 ± 10	24.88 ± 1
363.15 K	1139 ± 10	19.11 ± 0.78

CCn1cc[n+](C)c1.O=S(=O)([N-]S(=O)(=O)C(F)(F)F)C(F)(F)F
101.33 kPa, Liquid
Conditions	mass density, Vibrating tube method [kg/m3]	viscosity, Falling or rolling sphere viscometry [mPa·s]
283.15 K	1531 ± 10	56.17 ± 2.3
293.15 K	1521 ± 10	37.23 ± 1.5
303.15 K	1510 ± 10	26.55 ± 1.1
313.15 K	1500 ± 10	19.6 ± 0.8
323.15 K	1491 ± 10	15.01 ± 0.62
333.15 K	1483 ± 10	11.84 ± 0.49
343.15 K	1474 ± 10	9.57 ± 0.39
353.15 K	1465 ± 10	7.9 ± 0.32
363.15 K	1455 ± 10	6.65 ± 0.27

CCCC[n+]1ccn(C)c1.O=S(=O)([N-]S(=O)(=O)C(F)(F)F)C(F)(F)F
101.33 kPa, Liquid
Conditions	mass density, Vibrating tube method [kg/m3]	viscosity, Falling or rolling sphere viscometry [mPa·s]
283.15 K	1448 ± 10	88.06 ± 3.9
293.15 K	1438 ± 10	54.17 ± 2.2
303.15 K	1428 ± 10	35.88 ± 1.5
313.15 K	1418 ± 10	25.32 ± 1
323.15 K	1408 ± 10	18.69 ± 0.77
333.15 K	1399 ± 10	14.34 ± 0.59
343.15 K	1390 ± 10	11.22 ± 0.46
353.15 K	1379 ± 10	8.99 ± 0.37
363.15 K	1370 ± 10	7.38 ± 0.3

CCCCn1cc[n+](C)c1.F[P-](F)(F)(F)(F)F [1-butyl-3-methylimidazolium hexafluorophosphate]
101.33 kPa, Liquid
Conditions	mass density, Vibrating tube method [kg/m3]	viscosity, Falling or rolling sphere viscometry [mPa·s]
283.15 K	1380 ± 10	779.5 ± 73
293.15 K	1372 ± 10	345.1 ± 25
303.15 K	1363 ± 10	185.1 ± 11
313.15 K	1354 ± 10	109.6 ± 5.2
323.15 K	1346 ± 10	69.7 ± 2.9
333.15 K	1339 ± 10	46.59 ± 1.9
343.15 K	1332 ± 10	32.67 ± 1.3
353.15 K	1323 ± 10	23.85 ± 0.98
363.15 K	1314 ± 10	18.03 ± 0.74

CCC[N+]1(C)CCCCC1.O=S(=O)([N-]S(=O)(=O)C(F)(F)F)C(F)(F)F
101.33 kPa
Conditions	mass density [kg/m3]	viscosity [mPa·s]
283.15 K, Metastable liquid, Falling or rolling sphere viscometry	–	350.3 ± 25
283.15 K, Metastable liquid, Vibrating tube method	1422 ± 10	–
293.15 K, Falling or rolling sphere viscometry, Liquid	–	174.4 ± 9.8
293.15 K, Vibrating tube method, Liquid	1413 ± 10	–
303.15 K, Falling or rolling sphere viscometry, Liquid	–	99.68 ± 4.6
303.15 K, Vibrating tube method, Liquid	1404 ± 10	–
313.15 K, Falling or rolling sphere viscometry, Liquid	–	62.11 ± 2.6
313.15 K, Vibrating tube method, Liquid	1395 ± 10	–
323.15 K, Falling or rolling sphere viscometry, Liquid	–	40.78 ± 1.7
323.15 K, Vibrating tube method, Liquid	1386 ± 10	–
333.15 K, Falling or rolling sphere viscometry, Liquid	–	29.14 ± 1.2
333.15 K, Vibrating tube method, Liquid	1379 ± 10	–
343.15 K, Falling or rolling sphere viscometry, Liquid	–	21.36 ± 0.88
343.15 K, Vibrating tube method, Liquid	1371 ± 10	–
353.15 K, Falling or rolling sphere viscometry, Liquid	–	16.25 ± 0.67
353.15 K, Vibrating tube method, Liquid	1363 ± 10	–
363.15 K, Falling or rolling sphere viscometry, Liquid	–	12.75 ± 0.52
363.15 K, Vibrating tube method, Liquid	1353 ± 10	–

C[N+](C)(C)CCO.O=S(=O)([N-]S(=O)(=O)C(F)(F)F)C(F)(F)F [choline bis(trifluoromethylsulfonyl)imide]
101.33 kPa
Conditions	mass density [kg/m3]	viscosity [mPa·s]
293.15 K, Metastable liquid, Falling or rolling sphere viscometry	–	187.9 ± 11
293.15 K, Metastable liquid, Vibrating tube method	1539 ± 10	–
303.15 K, Metastable liquid, Falling or rolling sphere viscometry	–	111.5 ± 5.3
303.15 K, Metastable liquid, Vibrating tube method	1530 ± 10	–
313.15 K, Falling or rolling sphere viscometry, Liquid	–	71.05 ± 3
313.15 K, Vibrating tube method, Liquid	1520 ± 10	–
323.15 K, Falling or rolling sphere viscometry, Liquid	–	47.94 ± 2
323.15 K, Vibrating tube method, Liquid	1511 ± 10	–
333.15 K, Falling or rolling sphere viscometry, Liquid	–	34.09 ± 1.4
333.15 K, Vibrating tube method, Liquid	1504 ± 10	–
343.15 K, Falling or rolling sphere viscometry, Liquid	–	25.6 ± 1.1
343.15 K, Vibrating tube method, Liquid	1495 ± 10	–
353.15 K, Falling or rolling sphere viscometry, Liquid	–	19.61 ± 0.8
353.15 K, Vibrating tube method, Liquid	1486 ± 10	–
363.15 K, Falling or rolling sphere viscometry, Liquid	–	15.43 ± 0.63
363.15 K, Vibrating tube method, Liquid	1476 ± 10	–

CCCCn1cc[n+](C)c1.O=S(=O)([O-])C(F)(F)F [1-butyl-3-methylimidazolium trifluoromethanesulfonate]
101.33 kPa, Liquid
Conditions	mass density, Vibrating tube method [kg/m3]	viscosity, Falling or rolling sphere viscometry [mPa·s]
283.15 K	1309 ± 10	183.3 ± 10
293.15 K	1301 ± 10	106.5 ± 5
303.15 K	1293 ± 10	66.58 ± 2.8
313.15 K	1285 ± 10	44.45 ± 1.8
323.15 K	1277 ± 10	31.17 ± 1.3
333.15 K	1270 ± 10	22.81 ± 0.94
343.15 K	1262 ± 10	17.24 ± 0.71
353.15 K	1254 ± 10	13.48 ± 0.55
363.15 K	1247 ± 10	10.73 ± 0.44

Source: the NIST ThermoML archive (doi:10.1016/j.jct.2017.08.032)
